Data reported in publication PMC6864722, “Design and Synthesis of Novel Breast Cancer Therapeutic Drug Candidates Based upon the Hydrophobic Feedback Approach of Antiestrogens” (Molecules, 2019).
“Also recorded” adds a separate entry of the source.

Columns and labels:
OVX and ORX mice = test system: OVX and ORX mice; parameters: method as in doi:10.1351/pac200375091197; conditions: cited from earlier work
ERα = test system: ERα; parameters: method as in doi:10.1351/pac200375091197; conditions: cited from earlier work
MCF-7 cells = assay: MCF-7 cell proliferation assay (WST-8), in the presence or absence of 0.1 nM E2; type: cell-based, human; conditions: for EC50: estrogenic activity, absence of E2, four days; for Emax / IC50: MCF7; for Emax: read-out: Emax (maximal efficacy toward cell proliferation); for IC50: proliferation induced by 0.1 nM of E2, read-out: IC50 (inhibition of MCF-7 cell proliferation)
Description: Table 1 summarizes the EC50, IC50, and Emax values estimated from the MCF-7 cell proliferation assays. Emax represents the maximal efficacy of each compound toward cell proliferation and is an index of ER partial agonistic activity. Emax was estimated relative to that of E2, which was taken as 100.
The human breast adenocarcinoma cell line MCF-7 was routinely cultivated in DMEM supplemented with 10% FBS and 100 IU/mL penicillin and […] streptomycin at 37 °C in a 5% CO2 humidified incubator. Before an assay, MCF-7 cells were switched to DMEM (low glucose phenol red-free supplemented with 5% FBS, and 100 IU/mL penicillin and […] streptomycin). Cells were trypsinized from the maintenance dish with phenol red-free trypsin-EDTA and seeded in a 96-well plate at a density of 2000 cells per final volume of 100 μL DMEM supplemented with 5% stripped FBS and 100 IU/mL penicillin and […] streptomycin. After 24 h, the medium was removed and 90 μL of fresh medium and 10 μL of drug solution, supplemented with serial dilutions of test compounds or DMSO as dilute control in the presence or absence of 0.1 nM E2, were added to triplicate microcultures. Cells were incubated for four days. At the end of the incubation time, number of cells was counted by using the WST-8, which was added to microcultures 10 μL each, and they were incubated for 2–4 h. The absorbance at 450 nm was measured. This parameter relates to and number of living cells in the culture.

[1] = molecular target: T1, human estrogen receptor α (ERα) (Homo sapiens, UniProt P03372); assay: Competitive binding assay using [6,7-3H]17β-estradiol and human recombinant ERα (nitrocellulose filter binding); conditions: for RBA (relative binding affinity): binding affinity of E2 taken as 100, estimated from sigmoidal dose-response curves
T1 sequence (P03372 1-595): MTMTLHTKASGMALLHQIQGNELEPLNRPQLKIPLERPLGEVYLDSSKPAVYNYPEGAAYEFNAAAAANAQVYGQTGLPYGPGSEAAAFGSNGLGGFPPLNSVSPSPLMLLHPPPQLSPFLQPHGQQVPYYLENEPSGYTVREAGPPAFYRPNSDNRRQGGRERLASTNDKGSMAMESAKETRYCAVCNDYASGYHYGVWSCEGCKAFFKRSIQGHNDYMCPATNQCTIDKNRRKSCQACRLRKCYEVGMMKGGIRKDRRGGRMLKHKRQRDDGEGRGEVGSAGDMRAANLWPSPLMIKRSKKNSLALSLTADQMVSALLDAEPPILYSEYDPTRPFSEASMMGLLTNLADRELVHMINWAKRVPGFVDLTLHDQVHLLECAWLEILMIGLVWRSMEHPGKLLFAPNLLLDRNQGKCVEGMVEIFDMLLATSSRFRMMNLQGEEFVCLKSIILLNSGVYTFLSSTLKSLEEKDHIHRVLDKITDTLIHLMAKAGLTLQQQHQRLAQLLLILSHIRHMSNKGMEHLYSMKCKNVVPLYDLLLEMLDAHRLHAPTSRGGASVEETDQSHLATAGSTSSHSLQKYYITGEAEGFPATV
Description: The ligand binding activity of human estrogen receptor α (ER α) was determined by a nitrocellulose filter binding assay method. […] Radioactivity that remained in the membrane was measured in Atomlight by using a liquid scintillation counter.
All binding assays were performed in duplicate (n = 2).

ER = test system: ER; parameters: method as in PMID 15943468; conditions: cited from earlier work
[2] = Homo sapiens, relative to E2, taken as 100

Compound | Estrogenic / antiestrogenic activity toward MCF-7 (in words) (MCF-7 cells) | RBA (relative binding affinity) [1] | EC50 (MCF-7 cells; Homo sapiens, MCF7, 96 h) | Emax (MCF-7 cells; [2]) | Binding to ERα (in words) [1] | melting point | also measured
1,2-bis(4-hydroxyphenyl)-o-carborane [BE360] |  |  |  |  |  |  | Estrogenic action in bone and uterus (in words) (OVX and ORX mice): estrogenic action in bone without showing estrogenic action in the uterus; Binding affinity toward ERα (in words) (ERα): high binding affinity toward ERα
3,4-Bis (4-hydroxyphenyl)-2,3,6,7-tetrahydrothiepine [5a] | acted as an agonist toward MCF-7 cell proliferation; also recorded: showed estrogenic activity | 4.9% |  |  |  |  | EC50 (MCF-7 cells): 48 nM; Emax (maximal efficacy toward cell proliferation) (MCF-7 cells; relative to E2, taken as 100): 99%
Oc1ccc(C2=C(c3ccc(O)cc3)CSC2)cc1 [4a, 3,4-Bis-(4-hydroxyphenyl)-2,5-dihydrothiophene] | showed estrogenic activity |  | 390 nM | 119% | moderately bound to ERα |  | Binding affinity, times lower than that of E2 [1]: about 100 times
[O-][S+]1CC(c2ccc(O)cc2)=C(c2ccc(O)cc2)C1 [4b, 3,4-Bis-(4-hydroxyphenyl)-2,5-dihydrothiophene-1-oxide] |  | 0.003% |  |  | did not bind to the ERα ligand-binding domain (LBD), even at concentrations 1000 times higher than that of E2 | 219 to 220 °C | 
O=S1(=O)CC(c2ccc(O)cc2)=C(c2ccc(O)cc2)C1 [4c, 3,4-Bis-(4-hydroxyphenyl)-2,5-dihydrothiophene-1,1-dioxide] | showed estrogenic activity | 0.04% | 300 nM | 130% | did not bind to the ERα ligand-binding domain (LBD), even at concentrations 1000 times higher than that of E2 | 180.5 to 181 °C | 
CN(C)CCCOc1ccc(C2=C(c3ccc(O)cc3)CSC2)cc1 [4d, 4-{4-[4-(3-dimethylaminopropoxy)phenyl]-2,5-dihydrothiophen-3-yl}phenol] | acted as ER antagonists | 4.0% |  |  |  | 177 to 178.5 °C | IC50 (MCF-7 cells; Homo sapiens): 410 nM
O=S1(=O)CCC(c2ccc(O)cc2)=C(c2ccc(O)cc2)CC1 [5c, 4,5-Bis (4-hydroxyphenyl)-2,3,6,7-tetrahydrothiepine-1,1-dioxide] | weak estrogenic activity; also recorded: showed estrogenic activity |  | 4700 nM | 89% |  |  | 
CN(C)CCCOc1ccc(C2=C(c3ccc(O)cc3)CCSCC2)cc1 [5d, 4-{5-[4-(3-Dimethylaminopropoxy)phenyl]-2,3,6,7-tetrahydrothiepin-4-yl}phenol] | acted as ER antagonists |  |  |  |  |  | IC50 (MCF-7 cells; Homo sapiens): 90 nM
Oc1ccc(C2=C(c3ccc(O)cc3)C3CCC2CC3)cc1 [compound 2] |  |  |  |  |  |  | Estrogenic activity (in words) (ER): potent estrogenic activity
CC1(C)CC(c2ccc(O)cc2)=C(c2ccc(O)cc2)CC1(C)C [compound 3] |  |  |  |  |  |  | Estrogenic activity (in words) (ER): acted as a partial agonist
